Assay results: US20240174703A1, “THREE-COORDINATE AU(I) PROBES AND USE IN SELECTIVELY DISRUPTING MITOCHONDRIA IN CANCER CELLS” (University of Kentucky Research Foundation, priority 2021, published 2024)

Legend:
MDA-MB-231 [1] = test: Cell viability (MTT assay) in TNBC cell line MDA-MB-231; format: cell-based; settings: MDA-MB-231, MTT assay, 72 hours, mean ± s.e.m., n = 3
Description: Cell Culture. All cell lines were purchased from ATCC and routinely grown in a humidified incubator at 37° C. with 5-10% CO2. MDA-MB-468, MDA-MB-231, MDA-MB-175, MRCS, RPE-NEO, HCT116, and K562N were grown in DMEM supplemented with 10% FBS, 1% amphotericin and 1% penicillin/streptomycin. A2780 cells were grown in RPMI supplemented with 10% FBS, 1% amphotericin, and 1% penicillin/streptomycin, and 4 mM glutamine. All supplements along with PBS and trypsin-EDTA were purchased from Corning Inc. and used as is.
Cell Viability of AuTri-1-10 (Adherent Cell Lines). The cell viability of all 10 complexes were performed in MDA-MB-231. Additionally, AuTri-9 was evaluated in the following: MDA-MB-175, MA-MB-468, A2780, HCT116, OVCAR8 and MRCS. Cells were grown to confluency and trypsin was added to detach and harvest cells. The cells were washed with 2 mL of PBS and suspended in 10 mL of the appropriate media. The cells were centrifuged at 2000 rpm for 5 minutes and the pellet washed with 2 mL of PBS then suspended in 5 mL of the appropriate media. The cells were plated at a density of 2,000 cells/well in a 96-well clear bottom plate and allowed to adhere overnight at 37° C. with 5-10% CO2. The compounds were prepared as a stock in DMSO and used fresh. The compounds were added at seven concentrations (<1% DMSO) with a 3× serial dilution starting at 50 μM for the highest concentration and incubated at 37° C. for 72 h with 5-10% CO2. 1% DMSO were added to control wells as the vehicle control. The medium was removed and a solution of MTT (100 μL, prepared by dissolving MTT at 5 mg/mL and diluting by 10x with DMEM) was added to each well and incubated for 4 h at 37° C. with 5-10% CO2. The dye was removed from each well and 100 μL of DMSO was added to induce cell lysis. The plates were read using a Genios plate reader (λ=570 nm).

[2] = based on gold; cited from earlier work
MDA-MB-231 [3] = test: Transmission electron microscopy of mitochondrial morphology; format: cell-based; settings: AuTri-9 10 μM for 1 h
Description: Transmission Electron Microscopy. MDA-MB-231 cells were seeded in 6 well plates and allowed to grow to 85% confluency. The cells were then treated with AuTri-9 at a concentration of 10 μM (<1% DMSO) for 1 h at 37° C. Growth media were removed and immediately and added 3% glutaraldehyde at 4° C. in 0.1 M Sorenson's or Cacodylate Buffer. After 5 minutes remove fix and replace with fresh fixative, leave for 45 min-1 hr at 4° C., washed in 0.1 M buffer w/5% sucrose 4×, 5 minutes each. Post fix, the cells were stained with 1% OsO4 in 0.1 M buffer for 1 hr at 4° C. and washed in 0.1 M buffer 1×. The cells were dehydrated in graded ethanols, 5 minutes each, from 50% through 100% and absolute ethanol (2×) at 4° C. After the last alcohol wash remove the residual alcohol with a small pipette and immediately add straight resin (14.5 g Eponate 12, 8.0 g DDSA, 7.15 g NMA, and 0.85 gm BDMA) to the dish. Swirl the dish and then remove as much of the resin, (which may contain residual alcohol), with a plastic pipette being careful not to disturb the cell layer. Then add straight resin 2× for 1-2 hours and place under the lamp, on a shaker. Pour off the 2nd straight resin wash, let the plate drain well (leaving a layer of resin on the bottom) and invert labeled beem capsules into each well that have had the conical ends removed. […]

Compound	IC50 (MDA-MB-231 [1])	other results
CC(=O)OC[C@H]1O[C@@H]([S-])[C@H](OC(C)=O)[C@@H](OC(C)=O)[C@@H]1OC(C)=O.CCP(CC)CC.[Au+] [Auranofin]	1.31 ± 0.15 µM	MTD (maximum tolerated dose) [2]: 12 mg/kg
OO [H2O2, hydrogen peroxide]		mitochondrial morphology by TEM (MDA-MB-231 [3]): distinct cytoplasmic swelling and membrane rupture (white star) is observed; however, the mitochondria structure remains intact
c1ccc(-c2ccnc3c2ccc2c(-c4ccccc4)ccnc23)cc1 [Bathophenanthroline]	7.48 ± 1.64 µM	
Cc1ccnc2c1ccc1c(C)ccnc12 [4,7-dimethylphenanthroline]		IC50 (MDA-MB-231 [1]; Homo sapiens): 14.1 ± 2.58 µM
c1ccc(-c2ccccn2)nc1 [Bipyridine]	17.5 ± 0.354 µM	
[F][Sb-]([F])([F])([F])([F])[F].[Na+] [NaSbF6]	> 50 µM	
c1cnc2c(c1)ccc1cccnc12 [1,10-phenantrholine]		IC50 (MDA-MB-231 [1]; Homo sapiens): 7.21 ± 1.68 µM
CN[C@@H]1C[C@H]2O[C@@](C)([C@@H]1OC)n1c3ccccc3c3c4c(c5c6ccccc6n2c5c31)C(=O)NC4 [staurosporine]		mitochondrial morphology by TEM (MDA-MB-231 [3]): no distinct morphological changes to mitochondria
N.N.[Cl][Pt][Cl] [Cisplatin]	34.6 ± 0.783 µM	
